Reference: ChEMBL document CHEMBL1201861, “Genomics of Drug Sensitity in Cancer screening data, Wellcome Trust Sanger Institute”

Tests used:
Assay in all cases: cells
[1] = tested on: COLO-829; format: functional, cell-based, Homo sapiens; settings: Homo sapiens, COLO-829
Description: SANGER: Inhibition of human COLO-829 cell growth in a cell viability assay.

[2] = tested on: CaR-1; format: functional, cell-based, Homo sapiens; settings: Homo sapiens, CaR-1;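 note: growth inhibition of human CaR-1 cancer cells, read out with a cell viability assay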
Description: SANGER: Inhibition of human CaR-1 cell growth in a cell viability assay.

[3] = tested on: Calu-3; format: functional, cell-based, Homo sapiens; settings: Homo sapiens, Calu-3;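 note: growth inhibition of human Calu-3 cells, determined with a cell viability assay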
Description: SANGER: Inhibition of human Calu-3 cell growth in a cell viability assay.

[4] = tested on: ChaGo-K-1; format: functional, cell-based; settings: Homo sapiens;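 note: growth inhibition of ChaGo-K-1 cells, read out with a cell viability assay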
Description: SANGER: Inhibition of human ChaGo-K-1 cell growth in a cell viability assay.

[5] = tested on: D-542MG; format: functional, cell-based, Homo sapiens; settings: Homo sapiens, D-542MG
Description: SANGER: Inhibition of human D-542MG cell growth in a cell viability assay.

[6] = tested on: DEL; format: functional, cell-based; settings: Homo sapiens;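 note: growth inhibition of the human DEL cell line, read out with a cell viability assay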
Description: SANGER: Inhibition of human DEL cell growth in a cell viability assay.

[7] = tested on: DU-4475; format: functional, cell-based; settings: Homo sapiens
Description: SANGER: Inhibition of human DU-4475 cell growth in a cell viability assay.

[8] = tested on: HCT-116; format: functional, cell-based, Homo sapiens; settings: Homo sapiens, HCT-116
Description: SANGER: Inhibition of human HCT-116 cell growth in a cell viability assay.

[9] = tested on: HEC-1; format: functional, cell-based, Homo sapiens; settings: Homo sapiens, HEC-1;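 note: growth inhibition of the cell line, read out with a cell viability assay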
Description: SANGER: Inhibition of human HEC-1 cell growth in a cell viability assay.

[10] = tested on: HL-60; format: functional, cell-based; settings: Homo sapiens;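 note: growth inhibition of human HL-60 cells, read out with a cell viability assay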
Description: SANGER: Inhibition of human HL-60 cell growth in a cell viability assay.

[11] = tested on: HPAF-II; format: functional, cell-based, Homo sapiens; settings: Homo sapiens, HPAF-II;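 note: growth inhibition of HPAF-II cells, read out with a cell viability assay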
Description: SANGER: Inhibition of human HPAF-II cell growth in a cell viability assay.

[12] = tested on: HT1197; format: functional, cell-based, Homo sapiens, HT-1197; settings: Homo sapiens, HT1197
Description: SANGER: Inhibition of human HT-1197 cell growth in a cell viability assay.

[13] = tested on: HT-144; format: functional, cell-based, Homo sapiens; settings: Homo sapiens, HT-144
Description: SANGER: Inhibition of human HT-144 cell growth in a cell viability assay.

[14] = tested on: JAR; format: functional, cell-based, Homo sapiens; settings: Homo sapiens, JAR;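 note: growth inhibition of human JAR cells determined with a cell viability assay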
Description: SANGER: Inhibition of human JAR cell growth in a cell viability assay.

[15] = tested on: KARPAS-299; format: functional, cell-based; settings: Homo sapiens
Description: SANGER: Inhibition of human KARPAS-299 cell growth in a cell viability assay.

[16] = tested on: LNCaP-Clone-FGC; format: functional, cell-based, Homo sapiens; settings: Homo sapiens, LNCaP-Clone-FGC
Description: SANGER: Inhibition of human LNCaP-Clone-FGC cell growth in a cell viability assay.

[17] = tested on: MZ2-MEL; format: functional, cell-based, Homo sapiens; settings: Homo sapiens, MZ2-MEL;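 note: growth inhibition of MZ2-MEL cells read out with a cell viability assay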
Description: SANGER: Inhibition of human MZ2-MEL cell growth in a cell viability assay.

[18] = tested on: NCI-H1563; format: functional, cell-based, Homo sapiens; settings: Homo sapiens, NCI-H1563;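 note: growth inhibition of human NCI-H1563 cells, read out with a cell viability assay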
Description: SANGER: Inhibition of human NCI-H1563 cell growth in a cell viability assay.

[19] = tested on: NCI-H1693; format: functional, cell-based, Homo sapiens; settings: Homo sapiens, NCI-H1693;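 note: growth inhibition of the human cell line, read out with a cell viability assay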
Description: SANGER: Inhibition of human NCI-H1693 cell growth in a cell viability assay.

[20] = tested on: NCI-H1770; format: functional, cell-based; settings: Homo sapiens;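 note: growth inhibition of NCI-H1770 cells determined with a viability readout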
Description: SANGER: Inhibition of human NCI-H1770 cell growth in a cell viability assay.

[21] = tested on: NCI-H209; format: functional, cell-based; settings: Homo sapiens;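 note: growth inhibition of human NCI-H209 cells, measured by a cell viability assay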
Description: SANGER: Inhibition of human NCI-H209 cell growth in a cell viability assay.

[22] = tested on: NCI-H2228; format: functional, cell-based, Homo sapiens; settings: Homo sapiens, NCI-H2228;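 note: growth inhibition of human NCI-H2228 cells, read out by a cell viability assay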
Description: SANGER: Inhibition of human NCI-H2228 cell growth in a cell viability assay.

[23] = tested on: NCI-H23; format: functional, cell-based, Homo sapiens; settings: Homo sapiens, NCI-H23;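 note: cell viability assay measuring growth inhibition of NCI-H23 cells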
Description: SANGER: Inhibition of human NCI-H23 cell growth in a cell viability assay.

[24] = tested on: NCI-H358; format: functional, cell-based, Homo sapiens; settings: Homo sapiens, NCI-H358;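 note: growth inhibition of NCI-H358 human cells, read out with a cell viability assay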
Description: SANGER: Inhibition of human NCI-H358 cell growth in a cell viability assay.

[25] = tested on: NCI-H526; format: functional, cell-based; settings: Homo sapiens;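 note: growth inhibition of the human NCI-H526 cell line, measured by a cell viability assay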
Description: SANGER: Inhibition of human NCI-H526 cell growth in a cell viability assay.

[26] = tested on: NCI-H650; format: functional, cell-based, Homo sapiens; settings: Homo sapiens, NCI-H650;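 note: growth inhibition of NCI-H650 cells, read out by a viability assay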
Description: SANGER: Inhibition of human NCI-H650 cell growth in a cell viability assay.

[27] = tested on: NCI-H661; format: functional, cell-based, Homo sapiens; settings: Homo sapiens, NCI-H661;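 note: cell viability assay read-out, IC50 being the concentration that inhibits growth of the cells by half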
Description: SANGER: Inhibition of human NCI-H661 cell growth in a cell viability assay.

[28] = tested on: SNU1; format: functional, cell-based; settings: Homo sapiens;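 note: growth inhibition of human NCI-SNU-1 cells, measured with a cell viability assay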
Description: SANGER: Inhibition of human NCI-SNU-1 cell growth in a cell viability assay.

[29] = tested on: OVCAR-8; format: functional, cell-based, Homo sapiens; settings: Homo sapiens, OVCAR-8;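 note: growth inhibition of human OVCAR-8 cells, read out by a cell viability assay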
Description: SANGER: Inhibition of human OVCAR-8 cell growth in a cell viability assay.

[30] = tested on: PFSK-1; format: functional, cell-based, Homo sapiens; settings: Homo sapiens, PFSK-1;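 note: cell viability assay measuring how strongly compounds suppress growth of human PFSK-1 cells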
Description: SANGER: Inhibition of human PFSK-1 cell growth in a cell viability assay.

[31] = tested on: RMG-I; format: functional, cell-based, Homo sapiens; settings: Homo sapiens, RMG-I;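 note: growth inhibition of human RMG-I cells, read out with a cell viability assay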
Description: SANGER: Inhibition of human RMG-I cell growth in a cell viability assay.

[32] = tested on: RVH-421; format: functional, cell-based, Homo sapiens; settings: Homo sapiens, RVH-421
Description: SANGER: Inhibition of human RVH-421 cell growth in a cell viability assay.

[33] = tested on: S-117; format: functional, cell-based, Homo sapiens; settings: Homo sapiens, S-117
Description: SANGER: Inhibition of human S-117 cell growth in a cell viability assay.

[34] = tested on: SK-HEP1; format: functional, cell-based, Homo sapiens, SK-HEP-1; settings: Homo sapiens, SK-HEP1;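 note: cell viability readout used to quantify reduction in proliferation of human SK-HEP-1 cells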
Description: SANGER: Inhibition of human SK-HEP-1 cell growth in a cell viability assay.

[35] = tested on: SK-LMS-1; format: functional, cell-based, Homo sapiens; settings: Homo sapiens, SK-LMS-1;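 note: growth inhibition of human SK-LMS-1 cells, read out with a cell viability assay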
Description: SANGER: Inhibition of human SK-LMS-1 cell growth in a cell viability assay.

[36] = tested on: SK-MEL-1; format: functional, cell-based; settings: Homo sapiens;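 note: growth inhibition of human SK-MEL-1 cells, read out by a cell viability assay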
Description: SANGER: Inhibition of human SK-MEL-1 cell growth in a cell viability assay.

[37] = tested on: SW872; format: functional, cell-based, Homo sapiens; settings: Homo sapiens, SW872;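 note: growth inhibition of SW872 cells, read out by a viability assay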
Description: SANGER: Inhibition of human SW872 cell growth in a cell viability assay.

[38] = tested on: T47D; format: functional, cell-based, Homo sapiens; settings: Homo sapiens, T47D;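 note: growth inhibition of human T47D cells, measured with a cell viability assay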
Description: SANGER: Inhibition of human T47D cell growth in a cell viability assay.

[39] = tested on: A-431; format: functional, cell-based, Homo sapiens; settings: Homo sapiens, A-431;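 note: growth inhibition of A-431 cells, determined with a cell viability read-out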
Description: SANGER: Inhibition of human A431 cell growth in a cell viability assay.

[40] = tested on: ACHN; format: functional, cell-based, Homo sapiens; settings: Homo sapiens, ACHN;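 note: cell viability read-out used to gauge how strongly growth of human ACHN cells is suppressed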
Description: SANGER: Inhibition of human ACHN cell growth in a cell viability assay.

[41] = tested on: ACN; format: functional, cell-based, Homo sapiens; settings: Homo sapiens, ACN;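 note: growth inhibition of the human ACN cell line, read out via cell viability testing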
Description: SANGER: Inhibition of human ACN cell growth in a cell viability assay.

[42] = tested on: BB65-RCC; format: functional, cell-based, Homo sapiens; settings: Homo sapiens, BB65-RCC;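 note: growth inhibition of the cell line, measured with a cell viability assay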
Description: SANGER: Inhibition of human BB65-RCC cell growth in a cell viability assay.

[43] = tested on: BEN; format: functional, cell-based, Homo sapiens; settings: Homo sapiens, BEN;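 note: growth inhibition of the BEN cell line, read out with a cell viability assay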
Description: SANGER: Inhibition of human BEN cell growth in a cell viability assay.

[44] = tested on: C3A; format: functional, cell-based, Homo sapiens; settings: Homo sapiens, C3A;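 note: growth inhibition of C3A human cells, quantified with a cell viability readout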
Description: SANGER: Inhibition of human C3A cell growth in a cell viability assay.

[45] = tested on: CAL-62; format: functional, cell-based, Homo sapiens; settings: Homo sapiens, CAL-62;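 note: growth inhibition of CAL-62 cells, read out with a cell viability assay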
Description: SANGER: Inhibition of human CAL-62 cell growth in a cell viability assay.

[46] = tested on: TE-5; format: functional, cell-based, Homo sapiens; settings: Homo sapiens, TE-5;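 note: inhibition of cell growth, read out by a cell viability assay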
Description: SANGER: Inhibition of human TE-5 cell growth in a cell viability assay.

[47] = tested on: TE-8; format: functional, cell-based, Homo sapiens; settings: Homo sapiens, TE-8;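 note: growth inhibition of TE-8 cells, measured with a cell viability readout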
Description: SANGER: Inhibition of human TE-8 cell growth in a cell viability assay.

[48] = tested on: UACC-257; format: functional, cell-based, Homo sapiens; settings: Homo sapiens, UACC-257
Description: SANGER: Inhibition of human UACC-257 cell growth in a cell viability assay.

[49] = tested on: UMUC3; format: functional, cell-based, Homo sapiens; settings: Homo sapiens, UMUC3;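 note: growth inhibition of human UM-UC-3 cells, read out with a cell viability assay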
Description: SANGER: Inhibition of human UM-UC-3 cell growth in a cell viability assay.

[50] = tested on: no-11; format: functional, cell-based, Homo sapiens; settings: Homo sapiens;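 note: growth inhibition of human NO-11 cells, read out with a cell viability assay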
Description: SANGER: Inhibition of human no-11 cell growth in a cell viability assay.

[51] = tested on: COLO-684; format: functional, cell-based; settings: Homo sapiens
Description: SANGER: Inhibition of human COLO-684 cell growth in a cell viability assay.

Cc1cnc(-c2cnc(NCCNc3ccc(C#N)cn3)nc2-c2ccc(Cl)cc2Cl)[nH]1 [LADUVIGLUSIB]
IC50 [1]: > 2560 nM | IC50 [2]: > 2560 nM | IC50 [3]: > 2560 nM | IC50 [4]: > 2560 nM | IC50 [5]: > 2560 nM | IC50 [6]: > 2560 nM | IC50 [7]: > 2560 nM | IC50 [8]: > 2560 nM | IC50 [9]: > 2560 nM | IC50 [10]: > 2560 nM | IC50 [11]: > 2560 nM | IC50 [12]: > 2560 nM | IC50 [13]: > 2560 nM | IC50 [14]: > 2560 nM | IC50 [15]: > 2560 nM | IC50 [16]: > 2560 nM | IC50 [17]: > 2560 nM | IC50 [18]: > 2560 nM | IC50 [19]: > 2560 nM | IC50 [20]: > 2560 nM | IC50 [21]: > 2560 nM | IC50 [22]: > 2560 nM | IC50 [23]: > 2560 nM | IC50 [24]: > 2560 nM | IC50 [25]: > 2560 nM | IC50 [26]: > 2560 nM | IC50 [27]: > 2560 nM | IC50 [28]: > 2560 nM | IC50 [29]: > 2560 nM | IC50 [30]: > 2560 nM | IC50 [31]: > 2560 nM | IC50 [32]: > 2560 nM | IC50 [33]: 921 nM | IC50 [34]: > 2560 nM | IC50 [35]: > 2560 nM | IC50 [36]: > 2560 nM | IC50 [37]: > 2560 nM | IC50 [38]: > 2560 nM | IC50 [39]: > 2560 nM | IC50 [40]: > 2560 nM | IC50 [41]: > 2560 nM | IC50 [42]: > 2560 nM | IC50 [43]: > 2560 nM | IC50 [44]: > 2560 nM | IC50 [45]: > 2560 nM | IC50 [46]: > 2560 nM | IC50 [47]: > 2560 nM | IC50 [48]: > 2560 nM | IC50 [49]: > 2560 nM | IC50 [50]: > 2560 nM | IC50 [51]: > 2560 nM

C[C@]1(O)C[C@@H](c2nc(-c3ccc4ccc(-c5ccccc5)nc4c3)c3c(N)nccn32)C1 [LINSITINIB]
IC50 [1]: > 2560 nM | IC50 [2]: > 2560 nM | IC50 [3]: > 2560 nM | IC50 [4]: > 2560 nM | IC50 [5]: > 2560 nM | IC50 [6]: > 2560 nM | IC50 [7]: > 2560 nM | IC50 [8]: > 2560 nM | IC50 [9]: > 2560 nM | IC50 [10]: 1670 nM | IC50 [11]: > 2560 nM | IC50 [12]: > 2560 nM | IC50 [13]: 262 nM | IC50 [14]: > 2560 nM | IC50 [15]: > 2560 nM | IC50 [16]: > 2560 nM | IC50 [17]: > 2560 nM | IC50 [18]: > 2560 nM | IC50 [19]: > 2560 nM | IC50 [20]: 1510 nM | IC50 [21]: > 2560 nM | IC50 [22]: > 2560 nM | IC50 [23]: > 2560 nM | IC50 [24]: 671 nM | IC50 [25]: > 2560 nM | IC50 [26]: 214 nM | IC50 [27]: > 2560 nM | IC50 [28]: > 2560 nM | IC50 [29]: > 2560 nM | IC50 [30]: > 2560 nM | IC50 [31]: > 2560 nM | IC50 [32]: > 2560 nM | IC50 [33]: > 2560 nM | IC50 [34]: > 2560 nM | IC50 [35]: > 2560 nM | IC50 [36]: > 2560 nM | IC50 [37]: > 2560 nM | IC50 [38]: > 2560 nM | IC50 [39]: > 2560 nM | IC50 [40]: > 2560 nM | IC50 [41]: > 2560 nM | IC50 [42]: > 2560 nM | IC50 [43]: > 2560 nM | IC50 [44]: > 2560 nM | IC50 [45]: > 2560 nM | IC50 [46]: > 2560 nM | IC50 [47]: 1310 nM | IC50 [48]: > 2560 nM | IC50 [49]: > 2560 nM | IC50 [50]: > 2560 nM | IC50 [51]: > 2560 nM
